Among the test systems are ACHN renal; EKVX NSCLC; SF-539 CNS; SNB-19 CNS; SW-620 colon; T-47D breast; U251 CNS; UO-31 renal; K-562 leukemia; UACC-62 melanoma.
What all share (test): inhibition of tumour cell growth, NCI panel, 48 h

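Step 1: Grow cells in 96-well plates. Step 2: Expose to compound for 48 hours at 5 concentrations. Step 3: Interpolate endpoints linearly; if unreached, use highest concentration. TGI marks complete inhibition of growth.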

For `CC(C)=NNc1cnnc2ccc([N+](=O)[O-])cc12`, the TGI in the assay with ACHN renal, in the assay on EKVX NSCLC, in the assay with SF-539 CNS, in the assay with SNB-19 CNS, with SW-620 colon and in the assay with T-47D breast was > 100 µM throughout. Besides, the TGI with U251 CNS and with UO-31 renal was > 100 µM each time.

With `O=C(O)CCC(C(=O)O)N1C(=O)c2ccccc2C1=O` (stereo not given), the TGI with ACHN renal, with EKVX NSCLC, in the assay with K-562 leukemia, with SNB-19 CNS, in the assay with SW-620 colon and with T-47D breast was > 100 µM in each case. The TGI with U251 CNS, in the assay with UACC-62 melanoma and in the assay with UO-31 renal was > 100 µM each time.

Regarding `COC(=O)c1c(O)ccc2c1c1c(n2Cc2ccc(OC)cc2)C(=O)c2ccccc2C1=O`, the TGI with ACHN renal is 12.6 µM; in the assay on EKVX NSCLC, > 100 µM; in the assay on K-562 leukemia, 20 µM; in the assay on SF-539 CNS, 29.1 µM; in the assay on SNB-19 CNS, > 100 µM; in the assay on SW-620 colon, 45.6 µM. The values for the TGI in the assay on T-47D breast, in the assay with U251 CNS and with UO-31 renal were 46.1 µM, 23.4 µM and 29.2 µM, respectively.

Regarding `Cc1ccc(S(=O)(=O)NC(=O)NC(Cc2ccccc2)C(=O)O)cc1` (stereo not given), the TGI in the assay on ACHN renal, with K-562 leukemia, in the assay on SF-539 CNS, in the assay on SNB-19 CNS, with SW-620 colon and in the assay with T-47D breast was > 100 µM in each case. Besides, the TGI with U251 CNS, with UACC-62 melanoma and in the assay on UO-31 renal was > 100 µM in each case.

For the compound `Fc1ccc(C2NC(=S)NC3=C2CCOc2c3ccc3ccccc23)cc1` (stereo not given), the TGI in the assay with ACHN renal, in the assay with EKVX NSCLC, with K-562 leukemia, in the assay on SF-539 CNS, in the assay with SNB-19 CNS and in the assay on SW-620 colon was > 100 µM in each case. In addition, the values for the TGI in the assay on T-47D breast and in the assay with UO-31 renal were 9.44 µM and > 100 µM, respectively.

Take `O=c1[nH]c(=S)c2cc3c(=S)[nH]c(=O)n(CCC(c4ccccc4)(c4ccccc4)c4ccccc4)c3nc2n1CCC(c1ccccc1)(c1ccccc1)c1ccccc1`: the TGI in the assay on ACHN renal, in the assay on EKVX NSCLC, with K-562 leukemia, in the assay with SNB-19 CNS, in the assay with T-47D breast and with U251 CNS was > 100 µM throughout. Besides, the TGI with UACC-62 melanoma and in the assay on UO-31 renal was > 100 µM throughout.

`CCOP(=O)(CC1CC(O)(CNc2cc(Cl)nc(N)n2)C1)OCC` (stereo not given): the TGI in the assay with ACHN renal, in the assay with EKVX NSCLC, with K-562 leukemia, with SF-539 CNS, in the assay with SW-620 colon and in the assay with T-47D breast was > 100 µM throughout. Moreover, the TGI in the assay with U251 CNS, in the assay with UACC-62 melanoma and with UO-31 renal was > 100 µM throughout.

As for `Cc1c(NC(=S)N/N=C\C(=N/NC(=S)Nc2c(C)n(C)n(-c3ccccc3)c2=O)c2ccccc2)c(=O)n(-c2ccccc2)n1C`, the TGI in the assay on ACHN renal, with EKVX NSCLC, in the assay with SF-539 CNS, in the assay on SNB-19 CNS, in the assay with SW-620 colon and in the assay on T-47D breast was > 100 µM throughout. Further, the TGI with U251 CNS, with UACC-62 melanoma and in the assay with UO-31 renal was > 100 µM throughout.

Consider `COC(=O)c1c(C)ccc2c(O)c3c(cc12)C(=O)c1c2c(cc(O)c1C3=O)C1(C)OC(C)(O2)C(O)C(N(C)C)C1O` (stereo not given), for which the TGI with ACHN renal is 4.67 µM; in the assay with EKVX NSCLC it was 8.75 µM; in the assay with SF-539 CNS it was 12.8 µM; in the assay on SNB-19 CNS it was 7.22 µM; in the assay on SW-620 colon, > 100 µM; with U251 CNS, 1.6 µM. Moreover, the figures for the TGI in the assay with UACC-62 melanoma and in the assay on UO-31 renal were 8.64 µM and 9.27 µM, respectively.

`CC(C)(C)OC(=O)NC1CCCC1C(O)(C1=CCCC1)C1=CCCC1` (stereo not given): the TGI with ACHN renal, in the assay with SNB-19 CNS, in the assay with SW-620 colon, in the assay with T-47D breast, with U251 CNS and with UACC-62 melanoma was > 100 µM throughout.

Consider `Cc1ccc2ccc(=O)oc2c1`, for which the TGI with ACHN renal, in the assay with EKVX NSCLC, in the assay with K-562 leukemia, in the assay with SF-539 CNS, in the assay with SW-620 colon and in the assay on T-47D breast was > 100 µM each time. For the same compound, the TGI with U251 CNS, with UACC-62 melanoma and in the assay with UO-31 renal was > 100 µM in each case.

Turning to `CCOC(=O)CN=C1Nc2ccccc2C(=O)N2CSCC12` (stereo not given), the TGI in the assay on ACHN renal, in the assay with EKVX NSCLC, in the assay with K-562 leukemia, in the assay on SNB-19 CNS, in the assay on SW-620 colon and with T-47D breast was > 100 µM each time. The TGI in the assay on U251 CNS, in the assay on UACC-62 melanoma and in the assay with UO-31 renal was > 100 µM in each case.

`O=C(Nc1ccc(Cl)cc1)c1cccc([N+](=O)[O-])c1O`: the TGI with ACHN renal is > 100 µM; with EKVX NSCLC, 14.8 µM; with K-562 leukemia, 24.2 µM; with SF-539 CNS it was > 74.1 µM; with SNB-19 CNS, > 50.9 µM; in the assay on SW-620 colon, > 100 µM. Further, the TGI with U251 CNS worked out at 48.5 µM; in the assay on UACC-62 melanoma, 17.6 µM; with UO-31 renal it was 6.56 µM.

Consider `CC1(C)CC(=O)C2=C(C1)NC(SCC(=O)O)=C(C#N)C2c1ccc(Br)cc1` (stereo not given), for which the TGI with ACHN renal, in the assay on EKVX NSCLC, with SNB-19 CNS, in the assay on SW-620 colon, in the assay with U251 CNS and in the assay with UACC-62 melanoma was > 100 µM each time. The compound also gave a TGI in the assay with UO-31 renal of 15.6 µM.

Turning to `CN(C)c1ccc(/C=N/n2c(-c3ccccc3)nc3ccccc3c2=O)cc1`, the TGI with ACHN renal, in the assay on EKVX NSCLC, in the assay on SF-539 CNS, in the assay on SNB-19 CNS, with SW-620 colon and in the assay with T-47D breast was > 100 µM in each case. Also, the TGI in the assay with U251 CNS and in the assay with UACC-62 melanoma was > 100 µM each time.

These data come from PubChem BioAssay (NCI).
